# In patent publication US7820655B2, “Ethanol or 1,2-ethanediol cyclohexyl antibiotic derivatives” (Actelion Pharmaceuticals Ltd., priority 2006, dated 2010):
# Tests used:
# Type in all cases: cell-based
# [1] = tested on: M. catarrhalis A894; experiment: MIC by broth microdilution (NCCLS), M. catarrhalis A894; conditions: Moraxella catarrhalis, cation-adjusted Mueller-Hinton Broth, pH 7.2-7.3
# Protocol: (§1) These assays have been performed following the description given in “Methods for dilution Antimicrobial Susceptibility Tests for Bacteria that Grow Aerobically, 4th ed.; Approved standard: NCCLS Document M7-A4; National Committee for Clinical Laboratory Standards Villanova, Pa., USA, 1997”. Minimal inhibitory concentrations (MICs; mg/l) were determined in cation-adjusted Mueller-Hinton Broth (BBL) by a microdilution method following NCCLS guidelines (National Committee for Clinical Laboratory Standards. Methods for Dilution Antimicrobial Susceptibility). The pH of the test medium was 7.2-7.3.
# [2] = tested on: S. aureus A798; experiment: MIC by broth microdilution (NCCLS), S. aureus A798; conditions: Staphylococcus aureus, cation-adjusted Mueller-Hinton Broth, pH 7.2-7.3
# Protocol: as §1
# [3] = tested on: S. Pneumoniae 49619; experiment: MIC by broth microdilution (NCCLS), S. Pneumoniae 49619; conditions: Streptococcus pneumoniae, cation-adjusted Mueller-Hinton Broth, pH 7.2-7.3
# Protocol: as §1
MIC [1],MIC [2],MIC [3],SMILES
≤ 0.031 mg/L,≤ 0.031 mg/L,0.063 mg/L,"COc1ccc2nccc([C@@H](O)[C@H](O)[C@H]3CC[C@H](NCc4ccc5c(n4)NC(=O)CS5)CC3)c2n1 [Example 3, 6-(trans-{4-[(1R,2R)-1,2-dihydroxy-2-(6-methoxy-[1,5]naphthyridin-4-yl)-ethyl]-cyclohexylamino}-methyl)-4H-pyrido[3,2-b][1,4]thiazin-3-one]"
≤ 0.031 mg/L,≤ 0.031 mg/L,0.063 mg/L,"COc1cnc2cccc([C@@H](O)[C@H](O)[C@H]3CC[C@H](NC/C=C/c4cc(F)ccc4F)CC3)c2n1 [Example 10, (1R,2R)-1-{trans-4-[(E)-3-(2,5-difluoro-phenyl)-allylamino]-cyclohexyl}-2-(3-methoxy-quinoxalin-5-yl)-ethane-1,2-diol]"
0.031 mg/L,0.063 mg/L,0.125 mg/L,"COc1ccc2nccc(C[C@@H](O)[C@H]3CC[C@H](NCc4ccc5c(n4)NC(=O)CO5)CC3)c2n1 [Example 12, 6-(trans{4-[1-(1R)-hydroxy-2-(6-methoxy-[1,5]naphthyridin-4-yl)-ethyl]-cyclohexylamino}-methyl)-4H-pyrido[3,2-b][1,4]oxazin-3-one]"
